Measurements from patent publication US9327005B1, “Compositions and methods for improved energy metabolism” (VDF FutureCeuticals, Inc., priority 2012, dated 2016).

Test system: freshly isolated human peripheral blood cells
Experiment: Seahorse oxygen consumption rate (OCR)
Format: cell-based
Conditions: average
Experimental: Testing was performed using Seahorse technology in order to measure real-time changes in oxygen consumption by freshly isolated human peripheral blood cells.
All results were generated on freshly isolated blood cells from different and randomly selected healthy and fasted donors. […] These two values were used as positive and negative controls, respectively, in order to ensure quality of test, viability and metabolic functionality of fresh human blood cells. Oligomycin inhibits oxygen metabolism. In presence of this substance, cells generate ATP/energy mainly via glycolysis. […] To ensure quality of human blood cells, blood was collected directly into Cell Preparation Tube with Sodium Citrate, Becton Dickinson Inc. Peripheral blood cells were isolated during 45 minutes following Protocol provided by Becton Dickinson. Blood cells were cultivated during each experiment in Seahorse media supplemented with 5 mM of glucose. Glucose concentration was adjusted from 11 mM to 5 mM to avoid testing of samples under hyperglycemic conditions (typically glucose at concentration lower than 95 mg/dl).
Cells were isolated from healthy fasted subject, and treated with apple extract at indicated dose. […] Rate 7, 8 and 14 represent time-points: 4, 8 and 32 minutes after the treatment, respectively.

Compound | increase in OCR (positive control) [%] | inhibition of OCR (negative control) [%]
N#CC(C#N)=NNc1ccc(OC(F)(F)F)cc1 [FCCP] | 397 | 
CC[C@H]1/C=C/C=C/C[C@@H](C)[C@H](O)[C@@](C)(O)C(=O)[C@@H](C)[C@H](O)[C@@H](C)C(=O)[C@@H](C)[C@H](O)[C@@H](C)/C=C/C(=O)O[C@@H]2[C@H](C)[C@H](CC1)O[C@]1(CC[C@H](C)[C@H](C[C@@H](C)O)O1)[C@H]2C [oligomycin] |  | 86
